Legend:
[1] = system: rat/Wistar; assay: Aripiprazole-induced catalepsy; format: in vivo; conditions: ip, 1 hour after aripiprazole po
Protocol: (§1) Animals were subjected to a protocol as illustrated in FIG. 5.
(§2) Rats were made to fast from 6 PM on the day before the experiment until sacrifice. Rats were weighed and orally (PO) administered aripiprazole. […] For measurement of catalepsy, the observations were performed three times at each observation time point. The animals were forced to hang with their right forepaw on the upper edge of a steel can (diameter: 6 cm, height: 10 cm). When the animals remained in the unnatural vertical position for 30 seconds or longer, they were judged to be positive responders for catalepsy.

[2] = system: rat isolated aortae; assay: In vitro vascular studies by wire myography; conditions: for Time-dependent relaxation of the rat aorta: 2 h (120 min), pre-contracted aortae
[3] = system: rat/Wistar; assay: Aripiprazole-induced ptosis; format: in vivo; conditions: ip, 1 hour after aripiprazole po
Protocol: as §1, §2
The measurement of ptosis was performed as follows. Each animal was individually taken from the home cage and put on the experimenter's hand to observe the eyes. The ptosis score was determined for both eyes as described below, and the scores for the two eyes were added to obtain the total score (maximum score, 8) • 0: Normal • 1: Mild ptosis (upper eyelid covered ¼ of the eye) • 2: Moderate ptosis (upper eyelid covered ½ of the eye) • 3: Severe ptosis (upper eyelid covered ¾ of the eye) • 4: Complete ptosis (upper eyelid covered the entire eye)

[4] = system: 3T3L1 cells; assay: Induction of adipocyte differentiation (Oil Red O staining); format: cell-based; conditions: treated for 8 days
[5] = system: small resistance mesenteric vessels and aorta; assay: Chronic treatment of rats with CBD: vascular responses in isolated arteries; format: in vivo, rat; conditions: animals treated for 2 weeks
[6] = biological target: T1, PPARγ (Homo sapiens, UniProt P37231); assay: Transcriptional transactivation (luciferase reporter gene) assay; format: cell-based; conditions: any concentration tested; in words
T1 construct: expressed in transfected cells
T1 sequence (P37231 1-505): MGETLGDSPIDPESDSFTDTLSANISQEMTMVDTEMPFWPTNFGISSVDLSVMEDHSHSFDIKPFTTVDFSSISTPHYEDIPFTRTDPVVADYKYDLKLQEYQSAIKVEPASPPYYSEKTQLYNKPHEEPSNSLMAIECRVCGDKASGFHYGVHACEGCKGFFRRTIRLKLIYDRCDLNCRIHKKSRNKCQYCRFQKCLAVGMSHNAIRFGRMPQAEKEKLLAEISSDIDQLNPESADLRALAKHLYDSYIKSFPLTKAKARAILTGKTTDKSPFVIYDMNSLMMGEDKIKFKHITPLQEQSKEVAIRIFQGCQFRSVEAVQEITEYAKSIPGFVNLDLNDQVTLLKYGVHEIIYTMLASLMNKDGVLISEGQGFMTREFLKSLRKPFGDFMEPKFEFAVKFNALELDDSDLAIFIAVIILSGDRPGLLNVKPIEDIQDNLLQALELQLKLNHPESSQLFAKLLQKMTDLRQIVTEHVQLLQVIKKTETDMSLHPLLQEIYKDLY
T1 sequence (P19793 1-462 partner): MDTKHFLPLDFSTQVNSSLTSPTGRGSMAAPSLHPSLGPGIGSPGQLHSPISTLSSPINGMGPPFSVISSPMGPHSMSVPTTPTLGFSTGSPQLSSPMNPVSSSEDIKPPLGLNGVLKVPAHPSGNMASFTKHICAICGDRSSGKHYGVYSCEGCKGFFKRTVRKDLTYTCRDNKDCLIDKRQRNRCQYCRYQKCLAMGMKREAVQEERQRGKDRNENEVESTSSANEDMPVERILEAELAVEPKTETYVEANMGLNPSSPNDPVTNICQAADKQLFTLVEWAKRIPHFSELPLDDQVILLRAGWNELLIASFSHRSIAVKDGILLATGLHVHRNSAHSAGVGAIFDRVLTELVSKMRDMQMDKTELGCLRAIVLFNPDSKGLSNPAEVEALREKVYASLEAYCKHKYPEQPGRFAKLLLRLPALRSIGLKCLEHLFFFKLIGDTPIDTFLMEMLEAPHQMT
Protocol: In vitro vascular studies were carried out in rat isolated aortae by wire myography. PPARγ activation was investigated using reporter gene assays, a PPARγ competition-binding assay and an adipogenesis assay.

C=C(C)[C@@H]1CCC(C)=C[C@H]1c1c(O)cc(CCCCC)cc1O [CBD, cannabidiol]
Aripiprazole-induced catalepsy in rats ([1]; 120 mg/kg): significantly decreased
Time-dependent relaxation of the rat aorta ([2]; 10 μM): 69.7±4.0 % relaxation
Residual relaxation (vasorelaxant effect minus the vasorelaxant effect of vehicle and time) ([2]; 10 μM, after 2 h): 50.1±3.3 % relaxation
Basal tension over time ([2]; 2 h): -0.03 ± 0.01 g
Time-dependent vascular responses with the CB1 receptor antagonist AM251 ([2]; AM251 1 μM): did not significantly affect
Residual vasorelaxant effect in the presence of the PPARγ receptor antagonist GW9662 ([2]; GW9662 1 μM, after 1 h of incubation): significantly reduced
Residual vasorelaxant effect in the presence of the nitric oxide synthase inhibitor L-NAME ([2]; L-NAME 300 μM, vs control conditions): not different
Vascular response over time after pre-treating arteries with PTX or capsaicin ([2]; PTX 200 ng ml−1, 2 h or capsaicin 10 μM, 1 h): no effect
Residual vasorelaxant effects with the CB2 receptor antagonist SR144528 ([2]; SR144528 1 μM, between 45 min to 90 min): significantly inhibited
Potency and maximal contractile response to the re-introduction of calcium ([2]; calcium free, high potassium Krebs-Hensleit solution, 1 μM to 30 μM, concentration-dependent): significantly reduced
Vasorelaxant effect in arteries contracted with a high potassium buffer ([2]; compared with control): no difference
Vasorelaxant effect in vessels where tone was induced with U46619 in calcium free buffer ([2]; compared with control): significantly blunted
Vasorelaxant effect in endothelium-denuded and control aortae ([2]; endothelium-denuded): similar
Aripiprazole-induced ptosis in rats ([3]; 120 mg/kg): significantly decreased
Differentiation of 3T3 L1 cells to adipocytes (fat droplet accumulation, Oil Red O) [4]: signs of fat droplet accumulation were apparent at all concentrations tested
Maximal response to methoxamine in the aorta [5]: 1.63±0.21 g increase tension
Potency of acetylcholine (pEC50) in the aorta [5]: 5.37±0.40
Potency of methoxamine (pEC50), small resistance mesenteric vessels [5]: 5.79±0.10

CCCc1cc(O)c2c(c1)OC(C)(C)[C@@H]1CCC(C)=C[C@@H]21 [THCV, tetrahydrocannabivarin]
Aripiprazole-induced catalepsy in rats ([1]; 60 mg/kg): significantly decreased
Time-dependent relaxation of the rat aorta ([2]; 10 μM): 28.7±4.6 % relaxation
Effect on tone in pre-contracted aortae ([2]; 10 μM, in words): no effect on tone until after 105 minutes
Aripiprazole-induced ptosis in rats ([3]; 60 mg/kg): significantly decreased
PPARγ transcriptional activity [6]: no effect

COc1ccc(CCN(C)CCCC(C#N)(c2ccc(OC)c(OC)c2)C(C)C)cc1OC (stereo not drawn) [verapamil, reference compound]
Vasorelaxation of pre-constricted vessels ([2]; more rapid onset than CBD): significant vasorelaxation
